Source: publication PMC10065799, “High-throughput profiling of sequence recognition by tyrosine kinases and SH2 domains using bacterial peptide display” (eLife, 2023)

Experiments:
c-Src kinase domain = c-Src kinase domain (Homo sapiens, UniProt P12931); assay: pTyr-Var library bacterial peptide display kinase screen (enrichment scores); type: biochemical
Jak2 = assay: as above; type: biochemical, human
EPHB2 kinase domain = assay: as above; type: biochemical, human
EPHB1 kinase domain = assay: as above; type: biochemical, human
Fes = assay: as above; type: biochemical; conditions: mean of log2 of enrichment over R1-R6
MERTK kinase domain = assay: as above; type: biochemical, human
Fyn kinase domain = assay: as above; type: biochemical, human
AncSZ kinase domain = assay: as above; type: biochemical
Fer kinase domain = assay: as above; type: biochemical, mouse
c-Src SH2 domain = c-Src SH2 domain (Homo sapiens, UniProt P12931); assay: pTyr-Var library SH2 domain screen with SH2-dynabeads (enrichment scores)
FGFR3 kinase domain = assay: pTyr-Var library bacterial peptide display kinase screen (enrichment scores); type: biochemical, human
c-Abl kinase domain = biological target: T1, c-Abl kinase domain (Mus musculus, UniProt P00520); assay: as above; type: biochemical
T1 sequence (P00520 242-493 limits assumed): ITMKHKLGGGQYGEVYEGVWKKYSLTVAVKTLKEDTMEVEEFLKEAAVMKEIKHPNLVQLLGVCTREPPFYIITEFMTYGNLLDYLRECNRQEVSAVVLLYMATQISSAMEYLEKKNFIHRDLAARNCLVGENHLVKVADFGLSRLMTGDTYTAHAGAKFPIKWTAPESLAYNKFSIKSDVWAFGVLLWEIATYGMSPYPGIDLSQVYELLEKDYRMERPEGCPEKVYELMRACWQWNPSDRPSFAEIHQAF

[1] = tested on: 4G10 Platinum pan-phosphotyrosine antibody; assay: Phosphorylated pTyr-Var library selection with biotinylated pan-phosphotyrosine antibody; type: binding, mouse; conditions: enrichment score, sheet SH2-vs-peptide
Description: After the desired time of library phosphorylation, kinase activity was quenched with 25 mM EDTA and the cells were washed with PBS containing 0.2% BSA. Kinase-treated cells were then labeled with a 1:1000 dilution of biotinylated 4G10 Platinum anti-phosphotyrosine antibody (Millipore) for an hour on ice and washed with PBS containing 0.1% BSA and 2 mM EDTA (isolation buffer). The cells were finally resuspended in PBS containing 0.1% BSA. The phosphorylated, antibody-labeled cells were then mixed with magnetic beads from Dynabeads FlowComp Flexi kit (Invitrogen), at a ratio of 37.5 μL of washed beads per 50 μL of cell suspension, diluted into 450 μL of isolation buffer. The suspension was rotated at 4 °C for 30 minutes, then 375 μL of isolation buffer was added and the beads were separated from the bulk solution on a magnetic rack. The beads were washed once with 1 mL of isolation buffer, and then the supertantant were removed by aspiration. […] The bead/lysate mixture was centrifuged to pellet the beads and the mixture was stored at -20 °C.

Hck kinase domain = assay: pTyr-Var library bacterial peptide display kinase screen (enrichment scores); type: biochemical, human
Grb2 SH2 domain = assay: pTyr-Var library SH2 domain screen with SH2-dynabeads (enrichment scores)
SHP2 C-SH2 domain = assay: as above
FGFR1 kinase domain = assay: pTyr-Var library bacterial peptide display kinase screen (enrichment scores); type: biochemical, human
[2] = mean of log2 of enrichment over R1-R4
[3] = pTyr-Var library, enrichment score, replicate 1
[4] = pTyr-Var library, enrichment score, replicate 3
[5] = pTyr-Var library, enrichment score, replicate 4
[6] = mean of log2 enrichment of reference peptide, n = 4
[7] = pTyr-Var library, reference peptide enrichment, mean of n = 4
[8] = mean of log2 enrichment of reference peptide, n = 5
[9] = pTyr-Var library, reference peptide enrichment, mean of n = 5

In the case of ATVLNYLPKCI [A2M_Y817], the “c-Src mean of log2(enrichment)” value (c-Src kinase domain; [2]) is reported as -1.394, the “c-Src enrich. R1” value (c-Src kinase domain; [3]) is reported as 0.4801 and the “c-Src enrich. R3” value (c-Src kinase domain; [4]) is reported as 0.3246. The “c-Src enrich. R4” value (c-Src kinase domain; [5]) was 0.3798, the “Jak2 mean of log2(enrichment)” value (Jak2; mean of log2 of enrichment over R1-R3) was -0.2312 and the “Jak2 enrich. R1” value (Jak2; [3]) was 0.7671. For the same sequence, the “Jak2 enrich. R3” value (Jak2; [4]) was 0.8013, the “mean of log2(reference)” value (EPHB2 kinase domain; [6]) was -0.8971 and the ref. mean (EPHB2 kinase domain; [7]) was 0.5418. For the same sequence, the “mean of log2(reference)” value (EPHB1 kinase domain; [6]) was -0.6057, the ref. mean (EPHB1 kinase domain; [7]) was 0.6623 and the “Fes mean of log2(enrichment)” value (Fes) was -0.04028. For the same sequence, the “mean of log2(reference)” value (MERTK kinase domain; [6]) was -1.427, the ref. mean (MERTK kinase domain; [7]) was 0.3924 and the “Fyn mean of log2(enrichment)” value (Fyn kinase domain; [2]) was -1.219. For the same sequence, the “Fyn enrich. R1” value (Fyn kinase domain; [3]) was 0.5501, the “Fyn enrich. R3” value (Fyn kinase domain; [4]) was 0.3301 and the “Fyn enrich. R4” value (Fyn kinase domain; [5]) was 0.4584. The “AncSZ mean of log2(enrichment)” value (AncSZ kinase domain; mean of log2 of enrichment over R1-R5) was -0.4662, the “AncSZ enrich. R1” value (AncSZ kinase domain; [3]) was 0.5771 and the “AncSZ enrich. R3” value (AncSZ kinase domain; [4]) was 0.5974. For the same sequence, the “AncSZ enrich. R4” value (AncSZ kinase domain; [5]) was 1.037, the “AncSZ enrich. R5” value (AncSZ kinase domain; pTyr-Var library, enrichment score, replicate 5) was 0.9242 and the “Fer mean of log2(enrichment)” value (Fer kinase domain; [2]) was -1.275. For the same sequence, the “Fer enrich. R1” value (Fer kinase domain; [3]) was 0.6179, the “Fer enrich. R3” value (Fer kinase domain; [4]) was 0.5252 and the “Fer enrich. R4” value (Fer kinase domain; [5]) was 0.2478. For the same sequence, the “c-Src (mean)” value (c-Src SH2 domain; enrichment score, phosphorylated pTyr-Var library, sheet SH2-vs-peptide, mean) was 0.535, the “mean of log2(reference)” value (c-Src SH2 domain; mean of log2 enrichment of reference peptide, R1-R3, sheet c-Src) was -0.9781 and the ref. mean (c-Src SH2 domain; reference peptide, mean of R1-R3, sheet c-Src) was 0.535. For the same sequence, the “mean of log2(reference)” value (FGFR3 kinase domain; [8]) was -0.6609, the ref. mean (FGFR3 kinase domain; [9]) was 0.649 and the “c-Abl mean of log2(enrichment)” value (c-Abl kinase domain; [2]) was -0.5355. For the same sequence, the “c-Abl enrich. R1” value (c-Abl kinase domain; [3]) was 0.4542, the “c-Abl enrich. R3” value (c-Abl kinase domain; [4]) was 0.6528 and the “c-Abl enrich. R4” value (c-Abl kinase domain; [5]) was 0.8371. The “4G10 (mean)” value [1] was 0.6373, the “Hck mean of log2(enrichment)” value (Hck kinase domain; mean of log2(variant) / mean of log2(reference), R1-R4) was 0.599 and the “Hck enrich. R1” value (Hck kinase domain; [3]) was 0.4967. For the same sequence, the “Hck enrich. R3” value (Hck kinase domain; [4]) was 0.9831, the “Hck enrich. R4” value (Hck kinase domain; [5]) was 0.3063 and the “mean of log2(reference)” value (Grb2 SH2 domain; Grb2 SH2, mean of log2 enrichment of reference, R1-R3) was -0.1568. For the same sequence, the ref. mean (Grb2 SH2 domain; reference peptide enrichment score, Grb2 SH2, mean of R1-R3) was 0.8993, the “mean of log2(reference)” value (SHP2 C-SH2 domain; SHP2-C SH2, mean of log2 enrichment of reference, R1-R3) was -0.4562 and the ref. mean (SHP2 C-SH2 domain; reference peptide enrichment score, SHP2-C SH2, mean of R1-R3) was 0.736. For the same sequence, the “mean of log2(reference)” value (FGFR1 kinase domain; [8]) was -0.9981 and the ref. mean (FGFR1 kinase domain; [9]) was 0.5192.
